Patent publication US20100029575A1, “N-Oxides of Kappa Receptor Peptides” (priority 2006, published 2010)
Values joined by “and” are separate entries in the source; they are usually repeats but may differ in a detail not shown here. Equal values may be shown once. Square brackets hold non-standard residues; d marks the D form. Peptide text beside a SMILES is read from it. * marks the point of attachment. dNle = CCCC[C@@H](N)C(=O)O; X1 = [O-][n+]1ccc(CN*)cc1

Tests used:
[1] = target: T1, Kappa Opioid Receptor (Cavia porcellus, UniProt P41144); test: Kappa opioid receptor binding, competitive displacement of bound radioligand (guinea pig brain membranes); settings: for IC50: Kappa Opioid Receptor Binding IC50, guinea pig brain; for Kappa Opioid Receptor Binding Pct Max: guinea pig brain
T1 construct: from tissue; host or cells: guinea pig brain membranes
From the text: (§1) Receptor assays are well known in the art and kappa opioid receptors from several species have been cloned, as have mu and delta opioid receptors. Kappa opioid receptors as well as mu and delta opioid receptors are classical, seven-transmembrane spanning, G-protein coupled receptors. Although these cloned receptors readily allow a particular candidate compound, e.g., a peptide, to be screened, natural sources of mammalian opioid receptors are also useful for screening, as is well known in the art (Dooley C T et al. Selective ligands for the mu, delta, and kappa opioid receptors identified from a single mixture based tetrapeptide positional scanning combinatorial library. J. Biol. Chem. 273:18848-56, 1998). Thus, screening against both kappa and mu opioid receptors, whether of recombinant or natural origin, may be carried out in order to determine the selectivity of the compound(s) for the kappa relative to the mu opioid receptor.
(§2) Binding affinity refers to the strength of interaction between ligand and receptor. […] These studies can be performed using cloned kappa and mu opioid receptors expressed in stable transfected cell lines or naturally occurring opioid receptors from a receptor-enriched tissue source, as noted above. In these studies, the test compounds (unlabeled ligands) are used at increasing concentrations to displace the specific binding of a radiolabeled ligand that has high affinity and selectivity for the receptor studied. Tritiated U-69,593 and DAMGO can be used as ligands in kappa and mu opioid receptor studies, respectively. Both ligands are commercially available (NEN-Dupont). DAMGO is an acronym for [D-Ala^2, MePhe^4, Gly-ol^5]-enkephalin. The affinity of the radioligands is defined by the concentration of radioligand that results in half-maximal specific binding (KD) in saturation studies. The affinity of the test compound (unlabeled or cold ligand) is determined in competition binding studies by calculating the inhibitory constant (Ki) according to the following formula:
(§3) where IC50=Concentration of the cold ligand that inhibits 50% of the specific binding of the radioligand
(§4) F=free radioligand concentration
(§5) KD=affinity of the radioligand determined in saturation studies.
(§6) When performing these assays under specific conditions with relatively low concentrations of receptor, the calculated Ki for the test compound is a good approximation of its dissociation constant KD, which represents the concentration of ligand necessary to occupy one-half (50%) of the binding sites. […]
(§7) These binding assays employing kappa opioid receptors and mu opioid receptors are straightforward to perform and can be readily carried out with large numbers of compounds to determine whether such compounds are kappa opioid receptor-selective and have high affinity. […]

[2] = tested on: cytochrome P450 enzymes; test: Cytochrome P450 enzyme activities; assay type: in vitro ADME; settings: summary of Table 4
Procedure: (§8) Enzyme assays are well known in the art and CYP450 enzymes from several species have been cloned. Although these cloned enzymes readily allow a particular candidate compound, e.g., a peptide, to be screened, natural sources of CYP450 enzymes, e.g., liver microsomes, are also useful for screening, as is well known in the art. Preferred analogs have a Ki for CYP450 enzymes of about 10 micromolar (uM) or more, whereas more preferred analogs have a Ki for […] of about 100 uM or more. For the purpose of identifying useful compounds of the invention, the IC50 is a useful approximation of the Ki.

[3] = target: T2, Mu Opioid Receptor (Rattus norvegicus, UniProt P33535); test: Mu opioid receptor binding, competitive displacement of bound radioligand (rat brain membranes)
T2 construct: from tissue; host or cells: rat brain membranes
From the text: as §1, §2, §3, §4, §5, §6, §7

[4] = target: T3, P450 3A4 (Homo sapiens, UniProt P08684); test: P450 3A4/BQ inhibition; assay type: in vitro ADME
Procedure: as §8

[5] = target: T4, P450 1A2 (Homo sapiens, UniProt P05177); test: P450 1A2 inhibition; assay type: in vitro ADME
T4 sequence (P05177 1-516): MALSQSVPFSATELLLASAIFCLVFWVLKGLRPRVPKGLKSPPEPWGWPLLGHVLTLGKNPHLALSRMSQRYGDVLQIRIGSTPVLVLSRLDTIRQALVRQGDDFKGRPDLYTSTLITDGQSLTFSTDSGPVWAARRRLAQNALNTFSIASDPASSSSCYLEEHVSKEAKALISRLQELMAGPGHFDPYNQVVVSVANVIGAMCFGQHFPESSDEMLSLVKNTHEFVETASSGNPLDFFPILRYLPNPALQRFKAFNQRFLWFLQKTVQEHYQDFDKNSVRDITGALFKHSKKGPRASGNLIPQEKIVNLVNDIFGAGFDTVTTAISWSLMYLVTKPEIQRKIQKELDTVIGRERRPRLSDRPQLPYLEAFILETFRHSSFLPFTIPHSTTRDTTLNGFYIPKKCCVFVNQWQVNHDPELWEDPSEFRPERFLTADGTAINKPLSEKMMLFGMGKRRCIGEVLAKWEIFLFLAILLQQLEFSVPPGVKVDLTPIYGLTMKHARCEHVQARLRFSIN
Procedure: as §8

[6] = target: P450 2C9 (Homo sapiens, UniProt P11712); test: P450 2C9 inhibition; assay type: in vitro ADME
Procedure: as §8

[7] = target: T3, P450 3A4; test: P450 3A4/BFC inhibition; assay type: in vitro ADME
Procedure: as §8

[8] = target: T5, Kappa Opioid Receptor (Mus musculus, UniProt P33534); test: Functional second messenger assay, Gi-mediated inhibition of adenylate cyclase (cAMP, mouse brain); assay type: biochemical; settings: for EC50: Kappa Opioid Receptor Activity EC50, cAMP; for Kappa Opioid Receptor Activity Pct Max: cAMP
T5 construct: (cAMP, mouse brain); from tissue; host or cells: mouse brain

CCCC[C@@H](NC(=O)[C@@H](Cc1ccccc1)NC(=O)[C@H](N)Cc1ccccc1)C(=O)N[C@H](CCCNC(=N)N)C(=O)NCc1cc[n+]([O-])cc1 [Peptide No. 1, H-D-Phe-D-Phe-D-Nle-D-Arg-NH-4-picolyl-N-oxide] (H-[dF][dF][dNle][dR]-X1)
IC50 ([1]; Mean): ~6.3 nM and 6.3 nM
IC50 ([1]; individual samples): 2.6 nM and 9.4 nM and 4.2 nM
Kappa Opioid Receptor Binding Pct Max ([1]; Mean): 109.4 Pct
Kappa Opioid Receptor Binding Pct Max ([1]; individual samples, listed as Peptide1): 105.2 Pct and 117.3 Pct and 105.6 Pct
inhibitory activity on several cytochrome P450 enzyme activities [2]: absence of significant inhibitory activity
Mu Opioid Receptor Binding IC50 ([3]; rat brain): too high to determined
maximal binding inhibition at MOR ([3]; rat brain membranes): 15.5%
Mu Opioid Receptor Binding Pct Max ([3]; rat brain, Sample 1): 15.5 Pct
Mu Opioid Receptor Binding IC50 ([3]; rat brain, listed as Peptide1): No Fit
P450 3A4/BQ Inhibition Pct Max ([4]; Mean): 18 Pct
P450 3A4/BQ Inhibition IC50 ([4]; individual samples): No Fit
P450 3A4/BQ Inhibition Pct Max ([4]; individual samples): 15 Pct and 21 Pct
P450 1A2 Inhibition Pct Max ([5]; Mean): 13 Pct
P450 1A2 Inhibition IC50 ([5]; individual samples): No Fit
P450 1A2 Inhibition Pct Max ([5]; individual samples): 15 Pct and 10 Pct
IC50 [6]: > 10 µM
P450 2C9 Inhibition Pct Max ([6]; Mean): 26 Pct
P450 2C9 Inhibition Pct Max ([6]; individual samples): 21 Pct and 31 Pct
P450 3A4/BFC Inhibition Pct Max ([7]; Mean): 26 Pct
P450 3A4/BFC Inhibition IC50 ([7]; individual samples): No Fit
P450 3A4/BFC Inhibition Pct Max ([7]; individual samples): 22 Pct and 17 Pct and 40 Pct
EC50 ([8]; Mean): 0.42 nM
EC50 ([8]; individual samples): 0.3 nM and 0.57 nM
Kappa Opioid Receptor Activity Pct Max ([8]; Mean): 101.43 Pct
Kappa Opioid Receptor Activity Pct Max ([8]; individual samples, listed as Peptide 1): 92.46 Pct and 110.41 Pct
